Assay: Aerobic stability of grass silage (method of Honig), PVC silos
Set-up: species or system ryegrass
Description: Second cut ryegrass was harvested at PLNC. The grass was determined to have an approximate dry matter of 35%.
Inoculation: Individual strains were supplied as fresh grown overnight culture. Cultures were adjusted to a standard concentration of 5.0×10^7 CFU/mL and applied using a syringe at a rate of 2.2 mL/kg of forage. The application rate for all strains was 1.1×10^5 CFU/g forage. Propionic acid (88%) was applied at a rate of 4.4 mL/kg fresh forage.
PVC Silos: PVC silos were filled at a packing density of 0.288 kg DM/silo (100 kg DM/m^3); approximately 0.82-0.95 kg/silo. Silos were air infused for 24 hours on days 28 and 42, and opened after 50-60 days of ensiling.
Aerobic Stability: The method of Honig (Proc. Of the Eurobac. Conf., P. Lingvall and S. Lindgren (ed.) (12-16 Aug. 1986) Swed. Univ. of Agric. Sci. Grass and Forage Report No. 3-1990. Pp. 76-81. Uppsala, Sweden) was used for measuring aerobic stability (see Table 1). ROT is defined as the time, in hours, for the silage to heat 1.7° C. after exposure to air. Cumm_DD is the integral value of the area between the time ROT is attained and the end of the experiment. Aerobic dry matter loss (% dry matter) was determined relating the increase in temperature and the time to energy losses occurring in the silage.

[1] = average across replicate studies A, B, C

## CCC(=O)O [Propionic Acid, Propionic acid]
  Aerobic deterioration versus control grass silages: significantly less aerobic deterioration
[1]
  Aerobic Dry Matter Loss, Avg.: 0.43 % dry matter
  ROT (time for the silage to heat 1.7° C. after exposure to air), Avg.: 127 h
Replicate A
  Aerobic Dry Matter Loss, replicate study A: 0.29 % dry matter
  ROT (time for the silage to heat 1.7° C. after exposure to air), replicate study A: 137 h
Replicate B
  Aerobic Dry Matter Loss, replicate study B: 0 % dry matter
  ROT (time for the silage to heat 1.7° C. after exposure to air), replicate study B: 160 h
Replicate C
  Aerobic Dry Matter Loss, replicate study C: 1.01 % dry matter
  ROT (time for the silage to heat 1.7° C. after exposure to air), replicate study C: 86 h
Versus control
  Improvement of aerobic stability over the control: 96 h

From US20080138461A1, “Lactobacillus buchneri strain LN1297 and its use to improve aerobic stability of silage” (Pioneer Hi-Bred International, Inc., priority 2006, published 2008)
